Experimental data published in patent publication US20230416341A1, “IMPROVED THROMBIN INHIBITORS FOR TREATMENT OF THROMBOEMBOLIC CONDITIONS” (priority 2020, published 2023).

Assay: Blood loss after 3 mm tail transection (haemoglobin assay)
Conditions: mouse, in vivo, 10 mg/kg, 30 min
From the text: “Blood loss” generally refers excessive bleeding or haemorrhage. Minor haemorrhage refers to clinically insignificant bleeding. Major haemorrhage refers to internal bleeding or when the individual loses sufficient amounts of blood to cause a haemodynamic instability. Blood loss may be measured clinically by measuring blood pressure, pulse rate, haemoglobin levels, urea levels in the blood, and/or by imaging. Indicators of major haemorrhage will be clear to a person skilled in the art. Blood loss may also be determined experimentally for example by measuring the total volume of blood collected from a mouse tail transection and may be quantified by measurement of haemoglobin (mg/dL) present in the total volume of blood lost during a specified observation period (for example 20 minutes). Total haemoglobin may be assessed via a commercially available Haemoglobin colorimetric assay kit (Cat #MAK115; Sigma-Aldrich).
Blood loss was assessed by carrying out a 3 mm tail transection (lop) in rodents, to assess blood loss following compound/drug administration. Tail lop was performed using a standard transection 3 mm from the tip of the tail (Schoenwaelder et al, 2011, Blood). The tail was immediately immersed in pre-warmed sterile saline (37° C.) and time to bleeding cessation and rebleeding events monitored for 30 minutes following transection. […]

Structure (SMILES): CC1CNc2c(cccc2S(=O)(=O)N[C@@H](CCCNC(=N)N)C(=O)N2CC[C@@H](C)C[C@@H]2C(=O)O)C1 (stereo partly shown) [argatroban]
- blood loss (haemoglobin): over 2000 mg/dL
